Experimental findings from patent US20240132431A1, “METHOD FOR ALKYLATING ACIDIC FUNCTIONAL GROUP” (Chugai Seiyaku Kabushiki Kaisha, priority 2021, published 2024) are described below.

The test deals with T1, Bcl-2 protein (Recombinant Human Bcl-2 Protein) (Homo sapiens, UniProt P10415).
T1 construct: purchased Novus NBP2-34889
Nature of the test: Binding evaluation of mixture library compounds to Bcl-2 using AS-MS (affinity selection mass spectrometry). The conditions noted are these: for ASMS ratio (%) n = 1: replicate n = 1; for ASMS ratio (%) n = 1 / ASMS ratio (%) n = 2: ASMS Ratio(%)=(A−C)/B×100; for ASMS ratio (%) n = 2: replicate n = 2. In a few lines: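 Readout is ASMS Ratio (%), (A−C)/B×100, from reversed-phase LC/MS of SEC-passed extracts, with protein-free unfiltered standard (B) and protein-free SEC blank (C). Recombinant human Bcl-2 at 20 μM final met ~1200 pooled compounds at […] each for 1 h, 23° C., dark, in Tris-HCl pH 7.4 buffer.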

The mark [1] stands for this setting: AS-MS on the mixture of 1200 library compounds.
Setting [2] is: AS-MS, mixture of 1200 compounds, Bcl-2.

T1 sequence (P10415 whole entry): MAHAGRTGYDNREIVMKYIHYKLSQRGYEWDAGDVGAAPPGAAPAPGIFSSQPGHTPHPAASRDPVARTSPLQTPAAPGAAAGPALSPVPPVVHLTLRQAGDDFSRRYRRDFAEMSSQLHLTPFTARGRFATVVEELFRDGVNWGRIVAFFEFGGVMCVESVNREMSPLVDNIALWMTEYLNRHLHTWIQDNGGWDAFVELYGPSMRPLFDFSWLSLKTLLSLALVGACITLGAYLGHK

Regarding `CCOc1cncc(-c2ccccc2CCC(=O)N2CCN(c3ccc(C(=O)NS(=O)(=O)c4ccc(NCCSc5ccccc5)c([N+](=O)[O-])c4)cc3)CC2)c1` [B2Q034-01, 4-[4-[3-[2-(5-Ethoxypyridin-3-yl)phenyl]propanoyl]piperazin-1-yl]-N-[3-nitro-4-(2-phenylsulfanylethylamino)phenyl]sulfonylbenzamide], where the note is “AS-MS, mixture library, Bcl-2”, the “ASMS ratio (%) n = 1” value came out at 0.0% and the “ASMS ratio (%) n = 2” value stood at 0.0%.

Consider `CCOc1cccc(-c2ccc(CN3CCN(c4ccc(C(=O)N(C)CC56CC7CC(CC(C7)C5)C6)cc4)CC3)cc2C)c1` [B3A047-01, N-(1-Adamantylmethyl)-4-[4-[[4-(3-ethoxyphenyl)-3-methylphenyl]methyl]piperazin-1-yl]-N-methylbenzamide], for which, under setting [1], the “ASMS ratio (%) n = 1” value is 1.8% and the “ASMS ratio (%) n = 2” value was −5.9%.

For the compound `CCOc1cncc(-c2csc(CN3CCN(c4ccc(C(=O)NS(C)(=O)=O)cc4)CC3)c2)c1` [B2I068-01], the “ASMS ratio (%)” value is, setting by setting: (n = 1) 0.0%; (n = 2) 0.0%.

Take `CCOc1cccc(-c2ccc(CN3CCN(c4ccc(C(=O)Nc5ccc(OC)cc5)nn4)CC3)cc2C)c1` [B1O073-01, 6-[4-[[4-(3-Ethoxyphenyl)-3-methylphenyl]methyl]piperazin-1-yl]-N-(4-methoxyphenyl)pyridazine-3-carboxamide]: under setting [1], the “ASMS ratio (%) n = 1” value amounted to 2.0% and the “ASMS ratio (%) n = 2” value amounted to 3.7%.

Consider `CCOc1cncc(C#Cc2cc(C(=O)N3CCN(c4ccc(C(=O)NS(C)(=O)=O)cc4)CC3)cc(C(F)(F)F)c2)c1` [B2I042-01, 4-[4-[3-[2-(5-Ethoxypyridin-3-yl)ethynyl]-5-(trifluoromethyl)benzoyl]piperazin-1-yl]-N-methylsulfonylbenzamide], for which the “ASMS ratio (%)” value runs as follows: (n = 1) 0.0%; (n = 2) 0.0%.

Take `CCOc1cncc(C#Cc2cc(C(=O)N3CCN(c4ccc(C(=O)N(C)CC56CC7CC(CC(C7)C5)C6)cc4)CC3)cc(C(F)(F)F)c2)c1` [B3A042-01, N-(1-Adamantylmethyl)-4-[4-[3-[2-(5-ethoxypyridin-3-yl)ethynyl]-5-(trifluoromethyl)benzoyl]piperazin-1-yl]-N-methylbenzamide]: under setting [1], the “ASMS ratio (%) n = 1” value was −0.2% and the “ASMS ratio (%) n = 2” value is −1.2%.

Turning to `CCOc1cncc(-c2ccc(CN3CCN(c4ccc(C(=O)N(C)CC56CC7CC(CC(C7)C5)C6)cc4)CC3)c(OC)c2)c1` [B3A054-01, N-(1-Adamantylmethyl)-4-[4-[[4-(5-ethoxypyridin-3-yl)-2-methoxyphenyl]methyl]piperazin-1-yl]-N-methylbenzamide], under setting [1], the “ASMS ratio (%) n = 1” value is 0.0% and the “ASMS ratio (%) n = 2” value is 0.0%.

As to `CCOc1cccc(-c2cnn(-c3cc(C(=O)N4CCN(c5ccc(C(=O)NS(C)(=O)=O)nn5)CC4)cc(C(F)(F)F)c3)c2)c1` [B2I021-01, 6-[4-[3-[4-(3-Ethoxyphenyl)pyrazol-1-yl]-5-(trifluoromethyl)benzoyl]piperazin-1-yl]-N-methylsulfonylpyridazine-3-carboxamide], for the setting “AS-MS, mixture library, Bcl-2”, the “ASMS ratio (%) n = 1” value amounted to 0.0% and the “ASMS ratio (%) n = 2” value worked out at 0.0%.

Take `CCOc1cncc(-c2ccc(C(=O)N3CCN(c4ccc(C(=O)NS(=O)(=O)c5ccc(NCCSc6ccccc6)c([N+](=O)[O-])c5)nn4)CC3)cc2C)c1` [B2Q004-01, 6-[4-[4-(5-Ethoxypyridin-3-yl)-3-methylbenzoyl]piperazin-1-yl]-N-[3-nitro-4-(2-phenylsulfanylethylamino)phenyl]sulfonylpyridazine-3-carboxamide]: where the note is “AS-MS, mixture library, Bcl-2”, the “ASMS ratio (%) n = 1” value was determined as 10.7% and the “ASMS ratio (%) n = 2” value is 8.7%.

Consider `CCOc1cncc(C#Cc2cncc(C(=O)N3CCN(c4ccc(C(=O)N(CC)CC)nn4)CC3)c2)c1` [B4J010-01, 6-[4-[5-[2-(5-Ethoxypyridin-3-yl)ethynyl]pyridine-3-carbonyl]piperazin-1-yl]-N,N-diethylpyridazine-3-carboxamide], for which, under setting [1], the “ASMS ratio (%) n = 1” value is reported as 0.0% and the “ASMS ratio (%) n = 2” value came out at 2.3%.

For `CCOc1cncc(-c2cc(CN3CCN(c4ccc(C(=O)NS(=O)(=O)c5ccc(NCCSc6ccccc6)c(C(F)(F)F)c5)cc4)CC3)cc(OC(F)(F)F)c2)c1` [B2R064-01, 4-[4-[[3-(5-Ethoxypyridin-3-yl)-5-(trifluoromethoxy)phenyl]methyl]piperazin-1-yl]-N-[4-(2-phenylsulfanylethylamino)-3-(trifluoromethyl)phenyl]sulfonylbenzamide], the “ASMS ratio (%)” value by setting is: (n = 1) 4.2%; (n = 2) −7.4%.

Turning to `CCOc1cncc(-c2ccc(CN3CCN(c4ccc(C(=O)NS(C)(=O)=O)cc4)CC3)c(CC)c2)c1` [B2I050-01, 4-[4-[[4-(5-Ethoxypyridin-3-yl)-2-ethylphenyl]methyl]piperazin-1-yl]-N-methylsulfonylbenzamide], the “ASMS ratio (%)” value is reported as 0.0% (n = 1) and −1.5% (n = 2).

As to `CCCNC(=O)c1ccc(N2CCN(Cc3cc(OC(F)(F)F)cc(-c4cccc(OCC)c4)c3)CC2)nn1` [B1M033-01], under setting [2], the “ASMS ratio (%) n = 1” value is on record as 0.3% and the “ASMS ratio (%) n = 2” value was found to be 0.0%.

As for “6-[4-[4-(3-Ethoxyphenyl)-3-methylbenzoyl]piperazin-1-yl]-N-propylpyridazine-3-carboxamide [B1M036-01]”, under setting [2], the “ASMS ratio (%) n = 1” value is 6.7% and the “ASMS ratio (%) n = 2” value is listed as −1.2%.

As to `CCOc1cncc(C#Cc2ccccc2CN2CCN(c3ccc(C(=O)NCC45CC6CC(CC(C6)C4)C5)cc3)CC2)c1` [B1A070-01, N-(1-Adamantylmethyl)-4-[4-[[2-[2-(5-ethoxypyridin-3-yl)ethynyl]phenyl]methyl]piperazin-1-yl]benzamide], under setting [2], the “ASMS ratio (%) n = 1” value stood at 0.0% and the “ASMS ratio (%) n = 2” value came to 0.0%.

For `CCOc1cncc(-c2csc(C(=O)N3CCN(c4ccc(C(=O)NS(=O)(=O)C(C)(C)C)cc4)CC3)c2)c1` [B2L024-01, N-tert-Butylsulfonyl-4-[4-[4-(5-ethoxypyridin-3-yl)thiophene-2-carbonyl]piperazin-1-yl]benzamide], the “ASMS ratio (%)” value (n = 1) came out at 0.0% and the “ASMS ratio (%)” value (n = 2) worked out at 0.0%.

In the case of `CCOc1cncc(-c2ccc(CN3CCN(c4ccc(C(=O)N(C)CC56CC7CC(CC(C7)C5)C6)cc4)CC3)c3ccccc23)c1` [B3A066-01, N-(1-Adamantylmethyl)-4-[4-[[4-(5-ethoxypyridin-3-yl)naphthalen-1-yl]methyl]piperazin-1-yl]-N-methylbenzamide], under setting [1], the “ASMS ratio (%) n = 1” value is recorded as 6.3% and the “ASMS ratio (%) n = 2” value is −2.9%.

In the case of `CCOc1cncc(-c2cc(CN3CCN(c4ccc(C(=O)N(C)CC56CC7CC(CC(C7)C5)C6)nn4)CC3)cc(C(F)(F)F)c2)c1` [B3A088-01, N-(1-Adamantylmethyl)-6-[4-[[3-(5-ethoxypyridin-3-yl)-5-(trifluoromethyl)phenyl]methyl]piperazin-1-yl]-N-methylpyridazine-3-carboxamide], under setting [1], the “ASMS ratio (%) n = 1” value amounted to 2.5% and the “ASMS ratio (%) n = 2” value is 2.4%.

Turning to `CCOc1cccc(C#Cc2ccccc2C(=O)N2CCN(c3ccc(C(=O)N(C)CC45CC6CC(CC(C6)C4)C5)cc3)CC2)c1` [B3A029-01, N-(1-Adamantylmethyl)-4-[4-[2-[2-(3-ethoxyphenyl)ethynyl]benzoyl]piperazin-1-yl]-N-methylbenzamide], under setting [1], the “ASMS ratio (%) n = 1” value is recorded as 0.0% and the “ASMS ratio (%) n = 2” value stood at 0.0%.

With `CCOc1cccc(C#Cc2cncc(C(=O)N3CCN(c4ccc(C(=O)NS(=O)(=O)CCC(F)(F)F)cc4)CC3)c2)c1` [B2N031-01, 4-[4-[5-[2-(3-Ethoxyphenyl)ethynyl]pyridine-3-carbonyl]piperazin-1-yl]-N-(3,3,3-trifluoropropylsulfonyl)benzamide], the “ASMS ratio (%)” value (n = 1) stood at 0.0% and the “ASMS ratio (%)” value (n = 2) was determined as 0.0%.

As for `CCOc1cncc(-c2ccc(CN3CCN(c4ccc(C(=O)NS(=O)(=O)CCC(F)(F)F)nn4)CC3)c(CC)c2)c1` [B2N076-01, 6-[4-[[4-(5-Ethoxypyridin-3-yl)-2-ethylphenyl]methyl]piperazin-1-yl]-N-(3,3,3-trifluoropropylsulfonyl)pyridazine-3-carboxamide], the “ASMS ratio (%)” value amounted to 0.0% (n = 1) and 0.0% (n = 2).

As for `CCOc1cccc(-c2cc(CN3CCN(c4ccc(C(=O)N(CC)CC)nn4)CC3)cc(OC(C)C)c2)c1` [B4J083-01, 6-[4-[[3-(3-Ethoxyphenyl)-5-propan-2-yloxyphenyl]methyl]piperazin-1-yl]-N,N-diethylpyridazine-3-carboxamide], under “AS-MS, mixture library, Bcl-2”, the “ASMS ratio (%) n = 1” value is 0.0% and the “ASMS ratio (%) n = 2” value amounted to 0.0%.

For `CCOc1cccc(-c2csc(C(=O)N3CCN(c4ccc(C(=O)N(CC)CC)nn4)CC3)c2)c1` [B4J001-01, 6-[4-[4-(3-Ethoxyphenyl)thiophene-2-carbonyl]piperazin-1-yl]-N,N-diethylpyridazine-3-carboxamide], under setting [1], the “ASMS ratio (%) n = 1” value was 0.0% and the “ASMS ratio (%) n = 2” value amounted to 0.0%.

Regarding `CCOc1cccc(-c2ccc(C(=O)N3CCN(c4ccc(C(=O)NCC56CC7CC(CC(C7)C5)C6)nn4)CC3)cc2C)c1` [B1A003-01, N-(1-Adamantylmethyl)-6-[4-[4-(3-ethoxyphenyl)-3-methylbenzoyl]piperazin-1-yl]pyridazine-3-carboxamide], under setting [2], the “ASMS ratio (%) n = 1” value is given as 7.5% and the “ASMS ratio (%) n = 2” value was 5.8%.
